Assay results from patent publication US20140213513A1 (Sanofi, priority 2012, published 2014).
*1 amine or outer side, *2 acyl side, *3 side chain or, on linkers, in order; H or OH if unused. Where a SMILES comes first, the peptide text is derived from it. Side-chain parts run from the residue outwards. [ ]: non-standard residue; d: D form. The star is where a group is joined. γGlu = O=C(O)[C@H](CCC(=O)[*:2])N[*:1]; Stearoyl = CCCCCCCCCCCCCCCCCC(=O)*; Palmitoyl = CCCCCCCCCCCCCCCC(=O)*; Aib = CC(C)(N)C(=O)O

Legend:
Type in all cases: cell-based
Conditions in all cases: Table 7; cAMP formation
[1] = target: T1, human GLP-1 receptor (hGLP-1 R) (Homo sapiens, UniProt P43220); experiment: cAMP response of HEK-293 cells stably expressing human GLP-1 receptor (HTRF)
T1 construct: expressed in transfected cells
Outline: (§1)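 Cells grown overnight in DMEM/10% FBS, detached with accutase, resuspended in HBSS with 20 mM HEPES, 0.1% BSA and 2 mM IBMX at 400000 cells/ml. Test compound added and incubated 30 minutes at room temperature; cellular cAMP then measured by HTRF.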

[2] = target: T2, human GIP receptor (hGIP R) (Homo sapiens, UniProt P48546); experiment: cAMP response of HEK-293 cells stably expressing human GIP receptor (HTRF)
T2 construct: expressed in transfected cells
T2 sequence (P48546 22-466): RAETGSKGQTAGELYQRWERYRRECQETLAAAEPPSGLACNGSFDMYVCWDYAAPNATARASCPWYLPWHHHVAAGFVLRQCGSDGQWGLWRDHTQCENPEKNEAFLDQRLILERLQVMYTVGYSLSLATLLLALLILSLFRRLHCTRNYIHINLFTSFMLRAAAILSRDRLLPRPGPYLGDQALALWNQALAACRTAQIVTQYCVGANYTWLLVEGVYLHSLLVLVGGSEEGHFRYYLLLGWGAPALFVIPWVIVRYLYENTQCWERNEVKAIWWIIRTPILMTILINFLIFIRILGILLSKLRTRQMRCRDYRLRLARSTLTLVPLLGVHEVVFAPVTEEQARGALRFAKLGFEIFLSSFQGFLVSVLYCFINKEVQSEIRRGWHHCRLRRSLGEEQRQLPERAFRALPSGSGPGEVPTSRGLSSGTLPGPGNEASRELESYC
Outline: as §1

[3] = target: T3, human glucagon receptor (hGLUC R) (Homo sapiens, UniProt P47871); experiment: cAMP response of HEK-293 cells stably expressing human glucagon receptor (HTRF)
T3 construct: expressed in transfected cells
Outline: as §1

T3 sequence (P47871 26-477): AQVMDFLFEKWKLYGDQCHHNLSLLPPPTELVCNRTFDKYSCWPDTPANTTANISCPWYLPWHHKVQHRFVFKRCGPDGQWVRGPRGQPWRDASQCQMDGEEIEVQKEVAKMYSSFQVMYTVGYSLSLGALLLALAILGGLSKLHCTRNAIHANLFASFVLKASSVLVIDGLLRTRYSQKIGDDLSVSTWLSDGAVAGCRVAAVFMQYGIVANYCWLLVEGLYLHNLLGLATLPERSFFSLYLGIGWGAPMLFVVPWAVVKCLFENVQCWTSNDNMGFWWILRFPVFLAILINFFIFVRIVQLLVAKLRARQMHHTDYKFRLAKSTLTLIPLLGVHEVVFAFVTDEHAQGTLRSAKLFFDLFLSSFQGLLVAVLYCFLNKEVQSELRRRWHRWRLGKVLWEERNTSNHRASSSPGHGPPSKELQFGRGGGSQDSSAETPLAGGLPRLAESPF
T1 sequence (P43220 24-463): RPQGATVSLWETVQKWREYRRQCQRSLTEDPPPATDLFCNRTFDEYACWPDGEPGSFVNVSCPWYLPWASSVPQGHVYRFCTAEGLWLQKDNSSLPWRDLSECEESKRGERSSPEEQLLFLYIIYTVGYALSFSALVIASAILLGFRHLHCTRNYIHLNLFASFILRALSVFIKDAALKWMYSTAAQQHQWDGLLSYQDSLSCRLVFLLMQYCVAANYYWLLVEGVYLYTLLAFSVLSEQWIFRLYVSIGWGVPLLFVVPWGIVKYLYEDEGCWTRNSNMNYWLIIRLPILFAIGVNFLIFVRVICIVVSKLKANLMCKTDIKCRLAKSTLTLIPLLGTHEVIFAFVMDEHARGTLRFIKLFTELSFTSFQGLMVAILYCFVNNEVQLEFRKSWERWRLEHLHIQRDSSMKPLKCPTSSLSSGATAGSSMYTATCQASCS

Structure (SMILES): CCCCCCCCCCCCCCCC(=O)N[C@@H](CCC(=O)NCCCC[C@H](NC(=O)[C@H](CCC(N)=O)NC(=O)[C@@H](NC(=O)[C@H](CO)NC(=O)[C@H](CC(C)C)NC(=O)[C@H](CC(=O)O)NC(=O)[C@H](CO)NC(=O)[C@@H](NC(=O)[C@H](Cc1ccccc1)NC(=O)[C@@H](NC(=O)CNC(=O)[C@H](CCC(N)=O)NC(=O)C(C)(C)NC(=O)[C@@H](N)Cc1ccc(O)cc1)[C@@H](C)O)[C@@H](C)O)[C@@H](C)CC)C(=O)N[C@@H](CC(=O)O)C(=O)N[C@@H](CO)C(=O)N[C@@H](CCCNC(=N)N)C(=O)N[C@@H](C)C(=O)N[C@@H](CCC(N)=O)C(=O)N[C@@H](CCC(N)=O)C(=O)N[C@@H](CC(=O)O)C(=O)N[C@@H](Cc1ccccc1)C(=O)N[C@H](C(=O)N[C@@H](CCC(=O)O)C(=O)N[C@@H](Cc1c[nH]c2ccccc12)C(=O)N[C@@H](CC(C)C)C(=O)N[C@@H](CCCCN)C(=O)N[C@@H](C)C(=O)NCC(=O)NCC(=O)N1CCC[C@H]1C(=O)N[C@@H](CO)C(=O)N[C@@H](CO)C(=O)NCC(=O)N[C@@H](C)C(=O)N1CCC[C@H]1C(=O)N1CCC[C@H]1C(=O)N1CCC[C@H]1C(=O)N[C@@H](CO)C(N)=O)[C@@H](C)CC)C(=O)O [SEQ ID NO: 51, Y-Aib-Q-G-T-F-T-S-D-L-S-I-Q-K(yE-x53)-DSRAQQDFIEWLKAGGPSSGAPPPS-NH2] (H-Y[Aib]QGTFTSDLSIQK([γGlu-Palmitoyl])DSRAQQDFIEWLKAGGPSSGAPPPS-NH2)
- EC50 [1]: 0.0042 nM
- EC50 [2]: 0.0063 nM
- EC50 [3]: 0.571 nM

Structure (SMILES): CCCCCCCCCCCCCCCCCC(=O)N[C@@H](CCC(=O)NCCCC[C@H](NC(=O)[C@H](CCC(N)=O)NC(=O)[C@H](CCCCN)NC(=O)[C@H](CO)NC(=O)[C@H](CC(C)C)NC(=O)[C@H](CC(=O)O)NC(=O)[C@H](CO)NC(=O)[C@@H](NC(=O)[C@H](Cc1ccccc1)NC(=O)[C@@H](NC(=O)CNC(=O)[C@H](CCC(N)=O)NC(=O)C(C)(C)NC(=O)[C@@H](N)Cc1ccc(O)cc1)[C@@H](C)O)[C@@H](C)O)C(=O)N[C@@H](CC(=O)O)C(=O)N[C@@H](CO)C(=O)N[C@@H](CCCCN)C(=O)N[C@@H](C)C(=O)N[C@@H](C)C(=O)N[C@@H](CCC(N)=O)C(=O)N[C@@H](CC(=O)O)C(=O)N[C@@H](Cc1ccccc1)C(=O)N[C@H](C(=O)N[C@@H](CCC(=O)O)C(=O)N[C@@H](Cc1c[nH]c2ccccc12)C(=O)N[C@@H](CC(C)C)C(=O)N[C@@H](CCCCN)C(=O)N[C@@H](C)C(=O)NCC(=O)NCC(=O)N1CCC[C@H]1C(=O)N[C@@H](CO)C(=O)N[C@@H](CO)C(=O)NCC(=O)N[C@@H](C)C(=O)N1CCC[C@H]1C(=O)N1CCC[C@H]1C(=O)N1CCC[C@H]1C(=O)N[C@@H](CO)C(N)=O)[C@@H](C)CC)C(=O)O [SEQ ID NO: 41, Y-Aib-Q-G-T-F-T-S-D-L-S-K-Q-K(yE-x70)-DSKAAQDFIEWLKAGGPSSGAPPPS-NH2] (H-Y[Aib]QGTFTSDLSKQK([γGlu-Stearoyl])DSKAAQDFIEWLKAGGPSSGAPPPS-NH2)
- EC50 [1]: 0.0241 nM
- EC50 [2]: 0.186 nM
- EC50 [3]: 0.0265 nM

Structure (SMILES): CCCCCCCCCCCCCCCC(=O)N[C@@H](CCC(=O)NCCCC[C@H](NC(=O)[C@H](CCC(N)=O)NC(=O)[C@@H](NC(=O)[C@H](CO)NC(=O)[C@H](CC(C)C)NC(=O)[C@H](CC(=O)O)NC(=O)[C@H](CO)NC(=O)[C@@H](NC(=O)[C@H](Cc1ccccc1)NC(=O)[C@@H](NC(=O)CNC(=O)[C@H](CCC(N)=O)NC(=O)C(C)(C)NC(=O)[C@@H](N)Cc1ccc(O)cc1)[C@@H](C)O)[C@@H](C)O)[C@@H](C)CC)C(=O)N[C@@H](CCC(=O)O)C(=O)N[C@@H](CCCCN)C(=O)N[C@@H](CCCNC(=N)N)C(=O)N[C@@H](C)C(=O)N[C@@H](C)C(=O)NC(C)(C)C(=O)N[C@@H](Cc1ccc(O)cc1)C(=O)N[C@@H](Cc1ccccc1)C(=O)N[C@H](C(=O)N[C@@H](CCC(=O)O)C(=O)N[C@@H](Cc1c[nH]c2ccccc12)C(=O)N[C@@H](CC(C)C)C(=O)N[C@@H](CCCCN)C(=O)N[C@@H](CC(N)=O)C(=O)N[C@H](C(=O)NCC(=O)N1CCC[C@H]1C(=O)N[C@@H](CO)C(=O)N[C@@H](CO)C(=O)NCC(=O)N[C@@H](C)C(=O)N1CCC[C@H]1C(=O)N1CCC[C@H]1C(=O)N1CCC[C@H]1C(=O)N[C@@H](CO)C(N)=O)[C@@H](C)O)[C@@H](C)CC)C(=O)O [SEQ ID NO: 23, Y-Aib-Q-G-T-F-T-S-D-L-S-I-Q-K(yE-x53)-E-K-R-A-A-Aib-Y-F-I-E-W-L-K-N-T-G-P-S-S-G-A-P-P-P-S-NH2] (H-Y[Aib]QGTFTSDLSIQK([γGlu-Palmitoyl])EKRAA[Aib]YFIEWLKNTGPSSGAPPPS-NH2)
- EC50 [1]: 0.0092 nM
- EC50 [2]: 0.135 nM
- EC50 [3]: 0.312 nM

Structure (SMILES): CCCCCCCCCCCCCCCC(=O)N[C@@H](CCC(=O)NCCCC[C@H](NC(=O)[C@H](CCC(N)=O)NC(=O)[C@@H](NC(=O)[C@H](CO)NC(=O)[C@H](CC(C)C)NC(=O)[C@H](CC(=O)O)NC(=O)[C@H](CO)NC(=O)[C@@H](NC(=O)[C@H](Cc1ccccc1)NC(=O)[C@@H](NC(=O)CNC(=O)[C@H](CCC(N)=O)NC(=O)C(C)(C)NC(=O)[C@@H](N)Cc1ccc(O)cc1)[C@@H](C)O)[C@@H](C)O)[C@@H](C)CC)C(=O)N[C@@H](CCC(=O)O)C(=O)N[C@@H](CCCCN)C(=O)N[C@@H](CCCNC(=N)N)C(=O)N[C@@H](C)C(=O)NC(C)(C)C(=O)NC(C)(C)C(=O)N[C@@H](CCC(=O)O)C(=O)N[C@@H](Cc1ccccc1)C(=O)N[C@H](C(=O)N[C@@H](CCC(=O)O)C(=O)N[C@@H](Cc1c[nH]c2ccccc12)C(=O)N[C@@H](CC(C)C)C(=O)N[C@@H](CCCCN)C(=O)N[C@@H](CC(N)=O)C(=O)N[C@H](C(=O)NCC(=O)N1CCC[C@H]1C(=O)N[C@@H](CO)C(=O)N[C@@H](CO)C(=O)NCC(=O)N[C@@H](C)C(=O)N1CCC[C@H]1C(=O)N1CCC[C@H]1C(=O)N1CCC[C@H]1C(=O)N[C@@H](CO)C(N)=O)[C@@H](C)O)[C@@H](C)CC)C(=O)O [SEQ ID NO: 22, Y-Aib-Q-G-T-F-T-S-D-L-S-I-Q-K(yE-x53)-E-K-R-A-Aib-Aib-E-F-I-E-W-L-K-N-T-G-P-S-S-G-A-P-P-P-S-NH2] (H-Y[Aib]QGTFTSDLSIQK([γGlu-Palmitoyl])EKRA[Aib][Aib]EFIEWLKNTGPSSGAPPPS-NH2)
- EC50 [1]: 0.0085 nM
- EC50 [2]: 0.102 nM
- EC50 [3]: 2.21 nM

Structure (SMILES): CCCCCCCCCCCCCCCC(=O)N[C@@H](CCC(=O)NCCCC[C@H](NC(=O)[C@H](CCC(N)=O)NC(=O)[C@@H](NC(=O)[C@H](CO)NC(=O)[C@H](CC(C)C)NC(=O)[C@H](CC(=O)O)NC(=O)[C@H](CO)NC(=O)[C@@H](NC(=O)[C@H](Cc1ccccc1)NC(=O)[C@@H](NC(=O)CNC(=O)[C@H](CCC(N)=O)NC(=O)C(C)(C)NC(=O)[C@@H](N)Cc1ccc(O)cc1)[C@@H](C)O)[C@@H](C)O)[C@@H](C)CC)C(=O)N[C@@H](CC(=O)O)C(=O)N[C@@H](CO)C(=O)N[C@@H](CCCNC(=N)N)C(=O)N[C@@H](C)C(=O)N[C@H](C(=O)N[C@@H](CCC(N)=O)C(=O)N[C@@H](CC(=O)O)C(=O)N[C@@H](Cc1ccccc1)C(=O)N[C@H](C(=O)N[C@@H](CCC(=O)O)C(=O)N[C@@H](Cc1c[nH]c2ccccc12)C(=O)N[C@@H](CC(C)C)C(=O)N[C@@H](CCCCN)C(=O)N[C@@H](C)C(=O)NCC(=O)NCC(=O)N1CCC[C@H]1C(=O)N[C@@H](CO)C(=O)N[C@@H](CO)C(=O)NCC(=O)N[C@@H](C)C(=O)N1CCC[C@H]1C(=O)N1CCC[C@H]1C(=O)N1CCC[C@H]1C(=O)N[C@@H](CO)C(N)=O)[C@@H](C)CC)C(C)C)C(=O)O [SEQ ID NO: 50, Y-Aib-Q-G-T-F-T-S-D-L-S-I-Q-K(yE-x53)-DSRAVQDFIEWLKAGGPSSGAPPPS-NH2] (H-Y[Aib]QGTFTSDLSIQK([γGlu-Palmitoyl])DSRAVQDFIEWLKAGGPSSGAPPPS-NH2)
- EC50 [1]: 0.01 nM
- EC50 [2]: 0.0479 nM
- EC50 [3]: 1.72 nM

Structure (SMILES): CCCCCCCCCCCCCCCC(=O)N[C@@H](CCC(=O)NCCCC[C@H](NC(=O)[C@H](CCC(N)=O)NC(=O)[C@@H](NC(=O)[C@H](CO)NC(=O)[C@H](CC(C)C)NC(=O)[C@H](CC(=O)O)NC(=O)[C@H](CO)NC(=O)[C@@H](NC(=O)[C@H](Cc1ccccc1)NC(=O)[C@@H](NC(=O)CNC(=O)[C@H](CCC(N)=O)NC(=O)C(C)(C)NC(=O)[C@@H](N)Cc1ccc(O)cc1)[C@@H](C)O)[C@@H](C)O)[C@@H](C)CC)C(=O)N[C@@H](CCC(=O)O)C(=O)N[C@@H](CCCCN)C(=O)N[C@@H](CCCNC(=N)N)C(=O)NC(C)(C)C(=O)N[C@@H](C)C(=O)NC(C)(C)C(=O)N[C@@H](CCC(=O)O)C(=O)N[C@@H](Cc1ccccc1)C(=O)N[C@H](C(=O)N[C@@H](CCC(=O)O)C(=O)N[C@@H](Cc1c[nH]c2ccccc12)C(=O)N[C@@H](CC(C)C)C(=O)N[C@@H](CCCCN)C(=O)N[C@@H](CC(N)=O)C(=O)N[C@H](C(=O)NCC(=O)N1CCC[C@H]1C(=O)N[C@@H](CO)C(=O)N[C@@H](CO)C(=O)NCC(=O)N[C@@H](C)C(=O)N1CCC[C@H]1C(=O)N1CCC[C@H]1C(=O)N1CCC[C@H]1C(=O)N[C@@H](CO)C(N)=O)[C@@H](C)O)[C@@H](C)CC)C(=O)O [SEQ ID NO: 11, Y-Aib-Q-G-T-F-T-S-D-L-S-I-Q-K(yE-x53)-E-K-R-Aib-A-Aib-E-F-I-E-W-L-K-N-T-G-P-S-S-G-A-P-P-P-S-NH2] (H-Y[Aib]QGTFTSDLSIQK([γGlu-Palmitoyl])EKR[Aib]A[Aib]EFIEWLKNTGPSSGAPPPS-NH2)
- EC50 [1]: 0.0038 nM
- EC50 [2]: 0.0144 nM
- EC50 [3]: 0.0669 nM
